# Like-named read-outs stand apart in the source and are kept apart here.
# Tested on: panel of human cell lines
# Experiment: In vitro proliferation assay, Cell Titer Glo, two doubling times, 298 cell lines
# Type: cell-based
# Conditions: read-out: ABS_IC50_VALUE
# Source text: Cell Titer Glo measures ATP, thus the IC50s represent both the effect on purine production and cell proliferation, which are related. […] Folates are actively taken up in cells by reduced folate carrier (SLC19A1), proton-coupled folate transporter (SLC46A1), and the FOLR1 folate receptor[17]. Once inside the cell, folates are trapped by polyglutamation catalyzed by folylpolyglutamate synthetase (FPGS). […] Gene expression data for ATIC, GART, APRT, HPRT, FOLR1, SLC19A1, SLC46A1 & FPGS are shown in Fig. 2, since these genes were anticipated to predict sensitivity. […] The MDA-MB-231 cell line is reduced folate carrier (SLC19A1) negative due to epigenetic silencing.
# Cells were cultured using recommended culture conditions unless noted otherwise (Supplemental Table 3). Cells were plated, dosed with compound and incubated at 37 °C for approximately 2 doubling times as determined for each cell line. Cell Titer Glo (Promega) assay was used to measure proliferation according to manufacturer’s recommendations by measuring luminescence with Flexstation3 (Molecular Devices) with 500 ms integration time. […] The % response was fit to a four-parameter logistic equation using ACTIVITYBASE 4.0 to determine the absolute IC50 values.
# Cell Lines: Cell lines of adrenal gland, autonomic ganglia, biliary tract, blood ALL, blood AML, blood CML, blood hodgkin lymphoma, blood lymphoma, blood multiple myeloma, blood NHL, blood RAEB, bone, breast ER+, breast fibroblast, breast fibroblast mixed, breast HER2, breast normal, breast triple negative, cervix, CNS, endometrium, eye, fibroblast normal, kidney ns, kidney renal, large intestine, liver, liver normal, lung adenocarcinoma, lung ns, lung NSCLC, lung NSCLC mixed, lung SCLC, lung squamous, melanoma, melanoma normal, esophagus adenocarcinoma, esophagus ns, esophagus squamous, ovary, pancreas adenocarcinoma, pancreas ductal carcinoma, pancreas ns, pleura mesothelioma, prostate adenocarcinoma, prostate small cell, salivary gland, small intestine, soft tissue, stomach, testis, thyroid, thyroid squamous, umbilical vein endothelial cell normal, upper aerodigestive tract squamous, urinary tract ns, urinary tract transitional cell carcinoma, and vulva squamous origin were obtained from ATCC, CASTCC, CLS, DSMZ, ECACC, HSRRB, ICLC, JCRB, NCI, Riken and SNU cell banks. The murine A9 cell line was acquired from the ATCC (CCL-1.4).
smiles,measurement,setting,value
"O=c1[nH]ccc2cc(F)c(NS(=O)(=O)c3ccc(N4CC[C@@H](O)C4)s3)cc12 [LSN3213128, N-(6-Fluoro-1-oxo-1,2-dihydroisoquinolin-7-yl)-5-[(3R)-3-hydroxypyrrolidin-1-yl]thiophene-2-sulfonamide]",IC50,"Homo sapiens, 22Rv1, 22RV1, prostate",13.7 µM
same,IC50,"Homo sapiens, 769-P, kidney",1.21 µM
same,IC50,"Homo sapiens, 5637, urinary tract",2.88 µM
same,IC50,"Homo sapiens, 8505C, thyroid",> 20 µM
same,IC50,"Homo sapiens, A101D, skin",2.22 µM
same,IC50,"Homo sapiens, A204, A204, soft tissue",> 20 µM
same,IC50,"Homo sapiens, A253, A253, salivary gland",> 20 µM
same,IC50,"Homo sapiens, A498, A498, kidney",12.2 µM
same,IC50,"Homo sapiens, A549, A549, lung",> 20 µM
same,IC50,"Homo sapiens, A2058, A2058, skin",> 20 µM
same,IC50,"Homo sapiens, A2780, A2780, ovary",3.23 µM
same,IC50,"Homo sapiens, ACHN, kidney",1.94 µM
same,IC50,"Homo sapiens, AGS, stomach",> 20 µM
same,IC50,"Homo sapiens, ASPC1, AsPC-1, pancreas",> 20 µM
same,IC50,"Homo sapiens, AU565, AU565, breast",0.58 µM
same,IC50,"Homo sapiens, BCP-1, BCP-1, haematopoietic and lymphoid tissue",11.1 µM
same,IC50,"Homo sapiens, BT-20, BT-20, breast",> 20 µM
same,IC50,"Homo sapiens, BT-474, BT-474, breast",> 20 µM
same,IC50,"Homo sapiens, BT-483, BT-483, breast",> 20 µM
same,IC50,"Homo sapiens, BT-549, BT-549, breast",> 20 µM
same,IC50,"Homo sapiens, BXPC-3, BxPC-3, pancreas",4.49 µM
same,IC50,"Homo sapiens, C2BBe1, C2BBe1, large intestine",> 20 µM
same,IC50,"Homo sapiens, C3A, liver",25.2 µM
same,IC50,"Homo sapiens, C32, skin",> 20 µM
same,IC50,"Homo sapiens, CA46, CA46, haematopoietic and lymphoid tissue",> 20 µM
same,IC50,"Homo sapiens, CAKI-1, Caki-1, kidney",> 20 µM
same,IC50,"Homo sapiens, CAKI-2, Caki-2, kidney",5.03 µM
same,IC50,"Homo sapiens, CAMA-1, CAMA-1, breast",> 20 µM
same,IC50,"Homo sapiens, CAPAN-1, CAPAN-1, pancreas",> 20 µM
same,IC50,"Homo sapiens, CCF-STTG1, CCF-STTG1, central nervous system",> 20 µM
same,IC50,"Homo sapiens, CFPAC-1, CFPAC-1, pancreas",> 20 µM
same,IC50,"Homo sapiens, CHL-1, CHL-1, skin",> 20 µM
same,IC50,"Homo sapiens, CHP-212, CHP-212, autonomic ganglia",> 20 µM
same,IC50,"Homo sapiens, COLO 205, COLO-205, large intestine",1.68 µM
same,IC50,"Homo sapiens, COLO-320-HSR, large intestine",3.3 µM
same,IC50,"Homo sapiens, COLO-680N, oesophagus",2.05 µM
same,IC50,"Homo sapiens, COLO-741, COLO-741, large intestine",1.58 µM
same,IC50,"Homo sapiens, COR-L23, COR-L23, lung",1.4 µM
same,IC50,"Homo sapiens, Calu-1, Calu-1, lung",> 20 µM
same,IC50,"Homo sapiens, Calu-3, Calu-3, lung",2.27 µM
same,IC50,"Homo sapiens, Calu-6, Calu-6, lung",11.9 µM
same,IC50,"Homo sapiens, Capan-2, Capan-2, pancreas",15.3 µM
same,IC50,"Homo sapiens, ChaGo-K-1, ChaGo-K-1, lung",> 20 µM
same,IC50,"Homo sapiens, D341 Med, central nervous system",> 20 µM
same,IC50,"Homo sapiens, DB, haematopoietic and lymphoid tissue",10.8 µM
same,IC50,"Homo sapiens, DMS-53, DMS-53, lung",> 20 µM
same,IC50,"Homo sapiens, Daoy, central nervous system",1.02 µM
same,IC50,"Homo sapiens, Daudi, haematopoietic and lymphoid tissue",1.1 µM
same,IC50,"Homo sapiens, EB1, haematopoietic and lymphoid tissue",1.28 µM
same,IC50,"Homo sapiens, EB2, haematopoietic and lymphoid tissue",> 20 µM
same,IC50,"Homo sapiens, ES-2, ovary",> 20 µM
same,IC50,"Homo sapiens, F-36P, haematopoietic and lymphoid tissue",0.79 µM
same,IC50,"Homo sapiens, G-361, G-361, skin",> 20 µM
same,IC50,"Homo sapiens, G-401, G-401, kidney",> 20 µM
same,IC50,"Homo sapiens, G-402, G-402, soft tissue",> 20 µM
same,IC50,"Homo sapiens, GCT, soft tissue",> 20 µM
same,IC50,"Homo sapiens, GI-1, central nervous system",15.5 µM
same,IC50,"Homo sapiens, GP2d, large intestine",14.3 µM
same,IC50,"Homo sapiens, HCC38, HCC38, breast",> 20 µM
same,IC50,"Homo sapiens, HCC70, HCC70, breast",> 20 µM
same,IC50,"Homo sapiens, HCC202, HCC202, breast",> 20 µM
same,IC50,"Homo sapiens, HCC827, HCC827, lung",16 µM
same,IC50,"Homo sapiens, HCC1143, HCC1143, breast",> 20 µM
same,IC50,"Homo sapiens, HCC1187, HCC1187, breast",> 20 µM
same,IC50,"Homo sapiens, HCC1395, HCC1395, breast",> 20 µM
same,IC50,"Homo sapiens, HCC1419, HCC1419, breast",10.4 µM
same,IC50,"Homo sapiens, HCC1599, HCC1599, breast",3.65 µM
same,IC50,"Homo sapiens, HCC1806, HCC1806, breast",> 20 µM
same,IC50,"Homo sapiens, HCC1937, HCC1937, breast",18.5 µM
same,IC50,"Homo sapiens, HCC1954, HCC1954, breast",0.09 µM
same,IC50,"Homo sapiens, HCC2218, HCC2218, breast",> 20 µM
same,IC50,"Homo sapiens, HCT-15, HCT-15, large intestine",3.51 µM
same,IC50,"Homo sapiens, HEC-1-A, endometrium",13.6 µM
same,IC50,"Homo sapiens, HGC-27, HGC-27, stomach",> 20 µM
same,IC50,"Homo sapiens, HL-60, HL-60, haematopoietic and lymphoid tissue",> 20 µM
same,IC50,"Homo sapiens, HLE, liver",15 µM
same,IC50,"Homo sapiens, HLF, liver",9.35 µM
same,IC50,"Homo sapiens, HMCB, skin",4.45 µM
same,IC50,"Homo sapiens, HPAF-II, pancreas",11.1 µM
same,IC50,"Homo sapiens, HSC-2, HSC-2, upper aerodigestive tract",1.28 µM
same,IC50,"Homo sapiens, HSC-3, HSC-3, upper aerodigestive tract",7.22 µM
same,IC50,"Homo sapiens, HSC-4, HSC-4, upper aerodigestive tract",2.95 µM
same,IC50,"Homo sapiens, HT1197, HT-1197, urinary tract",0.37 µM
same,IC50,"Homo sapiens, HT-29, HT-29, large intestine",> 20 µM
same,IC50,"Homo sapiens, HT-144, HT-144, skin",> 20 µM
same,IC50,"Homo sapiens, HT-1080, HT-1080, soft tissue",4 µM
same,IC50,"Homo sapiens, HT-1376, HT-1376, urinary tract",0.49 µM
same,IC50,"Homo sapiens, Hs 294T, skin",> 20 µM
same,IC50,"Homo sapiens, Hs 606.T, breast",> 20 µM
same,IC50,"Homo sapiens, Hs 688(A).T, skin",> 20 µM
same,IC50,"Homo sapiens, Hs 695T, skin",> 20 µM
same,IC50,"Homo sapiens, Hs 739.T, breast",> 20 µM
same,IC50,"Homo sapiens, Hs 839.T, skin",> 20 µM
same,IC50,"Homo sapiens, Hs 940.T, skin",> 20 µM
same,IC50,"Homo sapiens, HuCCT-1, HuCCT1, biliary tract",17.1 µM
same,IC50,"Homo sapiens, HuG1-N, stomach",2.53 µM
same,IC50,"Homo sapiens, HuTu80, HUTU-80, small intestine",0.83 µM
same,IC50,"Homo sapiens, Huh-7, HuH-7, liver",12.5 µM
same,IC50,"Homo sapiens, IA-LM, lung",> 20 µM
same,IC50,"Homo sapiens, J82, urinary tract",> 20 µM
same,IC50,"Homo sapiens, JHH7, JHH-7, liver",28.3 µM
same,IC50,"Homo sapiens, K562, K-562, haematopoietic and lymphoid tissue",0.67 µM
same,IC50,"Homo sapiens, KALS-1, KALS-1, central nervous system",> 20 µM
same,IC50,"Homo sapiens, KE-97, KE-97, stomach",1.09 µM
same,IC50,"Homo sapiens, KG-1, haematopoietic and lymphoid tissue",> 20 µM
same,IC50,"Homo sapiens, KLE, endometrium",> 20 µM
same,IC50,"Homo sapiens, KM12, KM12, large intestine",2.05 µM
same,IC50,"Homo sapiens, KNS-42, KNS-42, central nervous system",> 20 µM
same,IC50,"Homo sapiens, KNS-62, KNS-62, lung",16 µM
same,IC50,"Homo sapiens, KNS-81, central nervous system",> 20 µM
same,IC50,"Homo sapiens, KP-4, pancreas",0.74 µM
same,IC50,"Homo sapiens, KU812, KU812, haematopoietic and lymphoid tissue",0.08 µM
same,IC50,"Homo sapiens, KYSE-410, KYSE-410, oesophagus",1.56 µM
same,IC50,"Homo sapiens, Kasumi-6, haematopoietic and lymphoid tissue",> 20 µM
same,IC50,"Homo sapiens, LOUCY, haematopoietic and lymphoid tissue",1.76 µM
same,IC50,"Homo sapiens, LUDLU-1, LUDLU-1, lung",> 20 µM
same,IC50,"Homo sapiens, MCF7, MCF7, breast",11.1 µM
same,IC50,"Homo sapiens, MDA-MB-157, MDA-MB-157, breast",> 20 µM
same,IC50,"Homo sapiens, MDA-MB-415, MDA-MB-415, breast",> 20 µM
same,IC50,"Homo sapiens, MDA-MB-436, MDA-MB-436, breast",> 20 µM
same,IC50,"Homo sapiens, MDA-MB-453, MDA-MB-453, breast",> 20 µM
same,IC50,"Homo sapiens, MDA-MB-468, MDA-MB-468, breast",0.44 µM
same,IC50,"Homo sapiens, MEG-01, MEG-01, haematopoietic and lymphoid tissue",0.29 µM
same,IC50,"Homo sapiens, MG-63, MG-63, bone",> 20 µM
same,IC50,"Homo sapiens, MKN-1, MKN1, stomach",> 20 µM
same,IC50,"Homo sapiens, MKN-45, MKN45, stomach",> 20 µM
same,IC50,"Homo sapiens, MKN-74, MKN74, stomach",> 20 µM
same,IC50,"Homo sapiens, MOLT-4, MOLT-4, haematopoietic and lymphoid tissue",1.11 µM
same,IC50,"Homo sapiens, MSTO-211H, pleura",> 20 µM
same,IC50,"Homo sapiens, Malme-3M, skin",> 20 µM
same,IC50,"Homo sapiens, NCI-H23, NCI-H23, lung",14.4 µM
same,IC50,"Homo sapiens, NCI-H28, NCI-H28, pleura",> 20 µM
same,IC50,"Homo sapiens, NCI-H69, NCI-H69, lung",18.5 µM
same,IC50,"Homo sapiens, NCI-H82, NCI-H82, lung",2.28 µM
same,IC50,"Homo sapiens, NCI-H209, NCI-H209, lung",5.55 µM
same,IC50,"Homo sapiens, NCI-H226, NCI-H226, lung",4.52 µM
same,IC50,"Homo sapiens, NCI-H358, NCI-H358, lung",6.06 µM
same,IC50,"Homo sapiens, NCI-H441, NCI-H441, lung",> 20 µM
same,IC50,"Homo sapiens, NCI-H446, NCI-H446, lung",1.68 µM
same,IC50,"Homo sapiens, NCI-H460, NCI-H460, lung",0.97 µM
same,IC50,"Homo sapiens, NCI-H508, NCI-H508, large intestine",13.1 µM
same,IC50,"Homo sapiens, NCI-H520, NCI-H520, lung",9.66 µM
same,IC50,"Homo sapiens, NCI-H522, NCI-H522, lung",9.92 µM
same,IC50,"Homo sapiens, NCI-H524, NCI-H524, lung",11.3 µM
same,IC50,"Homo sapiens, NCI-H596, NCI-H596, lung",> 20 µM
same,IC50,"Homo sapiens, NCI-H647, NCI-H647, lung",1.4 µM
same,IC50,"Homo sapiens, NCI-H650, NCI-H650, lung",8.6 µM
same,IC50,"Homo sapiens, NCI-H660, NCI-H660, prostate",7.16 µM

# Reference: publication PMC6193938, “Characterization of a novel AICARFT inhibitor which potently elevates ZMP and has anti-tumor activity in murine models” (Scientific Reports, 2018)
